One compound from US20210260051A1, “COMBINATION OF EZH2 INHIBITOR AND CHECKPOINT THERAPY FOR THE TREATMENT OF CANCER” (Board of Regents, The University of Texas System, priority 2018, published 2021) can be followed below.

This assay deals with MB49 tumor. As to the kind of experiment: MB49 tumor-bearing Rag1-/- mice. The format is in vivo, mouse. The settings on record: compared with the untreated group. The source says:
FIGS. 3A-3F: Blocking expression of EZH2 mediated by anti-CTLA-4 using CPI-1205 increases the effectiveness of anti-CTLA-4 therapy. Tumor growth (FIG. 3A), survival (FIG. 3B) and percentages of intra-tumoral CD4^+CD25^+FoxP3^+ regulatory T cells, CD4^+ICOS^+T-bet^+ and CD8^+IFNγ^+ cells (FIG. 3C) in MB49 tumor-bearing mice treated with vehicle, anti CTLA-4, CPI-1205, or the combination. Tumor growth (FIG. 3D) and percentages of CD4^+IFNγ^+ cells and CD8^+TNFα^+ cells in the lymph nodes (LN) (FIG. 3E) of MB49 tumor-bearing Ezh2^fl/+ and FoxP3^CreEzh2^fl/fl mice treated with anti-CTLA-4 on days 7 and 9. (FIG. 3F) Tumor growth and survival of MB49 tumor-bearing Rag-1^−/− mice treated with vehicle or CPI-1205. Data are representative of three independent experiments (n=10 in each group; one-way ANOVA was used to determine significance between the groups. **p<0.01).
To determine whether the anti-tumoral effect of combination therapy is exclusively due to effector immune response or is an additive effect of CPI-1205 on tumor cells, Rag 1^−/− C57BL/6 mice were used, which have no mature lymphocyte population. MB49 tumor-bearing Ragl^−/− mice were treated with CPI-1205.
Mice. C57BL/6 (5-7 weeks) mice were purchased from the National Cancer Institute (Frederick, Md.). […]

As to `COc1cc(C)[nH]c(=O)c1CNC(=O)c1c(C)n([C@H](C)C2CCN(CC(F)(F)F)CC2)c2ccccc12` [CPI-1205, N-[(4-methoxy-6-methyl-2-oxo-1H-pyridin-3-yl)methyl]-2-methyl-1-[(1R)-1-[1-(2,2,2-trifluoroethyl)piperidin-4-yl]ethyl]indole-3-carboxamide], the survival result is “No significant difference” and the tumor growth result is reported as “No significant difference”.
